Assay: Solubility in water
Settings: 20° C., 100 g of water

In the case of `COCCOC` [ethylene glycol dimethyl ether], the miscibility with water is reported as “completely miscible with water”.

Source: patent US20250304811A1, “Ink Jet Ink Composition And Recording Method” (SEIKO EPSON CORPORATION, priority 2024, published 2025)
